One assay has as its target T1, EcDXPS (Escherichia coli, UniProt P77488).
T1 construct: made in house
As to the kind of experiment: DXPS-IspC coupled assay, apparent Ki on wildtype EcDXPS. The assay is classed as biochemical. The conditions noted are these: for Ki: read-out: Ki^app; for fold change in Ki^app relative to 1: relative to compound 1. The protocol: To determine inhibitor potency, we used the DXPS-DXP reductoisomerae (DXPS-IspC) coupled assay to measure the activity of recombinant purified EcDXPS[24],[25],[31],[44],[50] in the presence of inhibitors. Reactions were initiated by the addition of substrates following a short preincubation of the inhibitor with enzymes, and initial velocities were determined by monitoring reduced nicotinamide adenine dinucleotide phosphate (NADPH) absorbance at 340 nm. Apparent Ki values were determined by fitting initial velocity data to the Morrison equation,[64],[65] which accounts for the tight-binding nature (Ki^app/[E]total < 10)[66] of inhibitors included in this study and allows for rigorous comparison of inhibitor potencies. […] Inhibitor activities were rationalized based on the predictions made from molecular docking of the corresponding PLThDP adducts into the DXPS active site.
All compounds in this study were evaluated as DXPS inhibitors using the DXPS-IspC coupled assay as previously reported.[24] […] The DXPS reaction was initiated by the addition of substrates (50 μM pyruvate and 500 μM D-GAP). The initial rate of depletion of NADPH was monitored at 340 nm and was used to calculate the initial rate of DXP formation in the presence or absence of inhibitor. Initial rates of DXP formation were plotted as a function of [inhibitor], and Ki^app was determined by fitting the data to the Morrison equation (eq 1)[64],[65] in GraphPad Prism. This approach was deemed appropriate as the concentration of free inhibitor cannot be assumed to remain constant for most of these analogs in which Ki^app values approach the concentration of DXPS.[88],[89] Error is reported as standard deviation from three replicates. Active enzyme concentration ([E]T) was determined following Copeland’s method using 8 (Figure S2B).[88]
The coupled assay was initiated by adding 20 μL of a 10× substrate stock to the preincubated E + I mixture to give a final volume of 200 μL. The final concentration of D-GAP was held constant at 500 μM, and [pyruvate] was added to final concentrations between 0 and 250 μM. The initial rate of NADPH depletion in the IspC-coupled reaction was monitored at 340 nm and was used to calculate the initial rate of DXP formation in the presence or absence of inhibitor. Initial rates were plotted as a function of [pyruvate]. […] Model discrimination analysis employing the Akaike information criterion was performed as well as Lineweaver–Burk analysis to determine the mixed model as the best fit. In all cases, error bars represent the standard deviation from three replicates.

For assay [1], the system named is porcine pyruvate dehydrogenase (PDH) E1 subunit. The assay can be described thus: Inhibition of porcine pyruvate dehydrogenase (PDH). The assay is classed as biochemical. The following applies: DXPS over porcine PDH. The source says: As noted, DXPS has a large active site and follows a mechanism requiring ternary complex formation, distinct from other ThDP-dependent pyruvate decarboxylases. We hypothesized that the sterically demanding scaffold of 8, predicted to engage both substrate binding sites, should display selectivity for DXPS. In a preliminary assessment, we tested 8 as an inhibitor of porcine pyruvate dehydrogenase (PDH) E1 subunit. […] For comparison, the selectivity ratio for 1 was estimated to be >15,000-fold for DXPS over porcine PDH.
Figure S5. Evaluation of inhibitory activity of 8 against mammalian porcine pyruvate dehydrogenase (PDH). Porcine PDH (0.01 U/mL) and inhibitor (8 or MAP positive control) were preincubated for 10 minutes at 25 °C in enzyme buffer (2 mM MgCl2, 5 mM L-cysteine, 1 mM ThDP, 300 μM TCEP, 100 mM HEPES pH 8, 2.5 mM NAD +, and 100 μM coenzyme A). The reaction was initiated by addition of pyruvate (60 μM). The change in absorbance at 340 nm over time was measured and used to calculate the initial rate of NADH formation. The % activity of PDH in the presence of 8 or MAP was plotted using GraphPad Prism version 9. There is 21% inhibition of PDH activity observed in the presence of compound 8 at a concentration of 1 mM.
Experiments were performed in triplicate. Error bars represent standard error.
Figure S6. Replicate progress curves for DXP formation in the presence or absence of inhibitors 8 or 10 with EcDXPS. A) Progress curves for formation of DXP in the presence of 8 display time-dependence of inhibition. B) Progress curves for formation of DXP in the presence of descarboxyl […]

Where only a bound is given, the exact number is not on record here.

T1 sequence (P77488 whole entry): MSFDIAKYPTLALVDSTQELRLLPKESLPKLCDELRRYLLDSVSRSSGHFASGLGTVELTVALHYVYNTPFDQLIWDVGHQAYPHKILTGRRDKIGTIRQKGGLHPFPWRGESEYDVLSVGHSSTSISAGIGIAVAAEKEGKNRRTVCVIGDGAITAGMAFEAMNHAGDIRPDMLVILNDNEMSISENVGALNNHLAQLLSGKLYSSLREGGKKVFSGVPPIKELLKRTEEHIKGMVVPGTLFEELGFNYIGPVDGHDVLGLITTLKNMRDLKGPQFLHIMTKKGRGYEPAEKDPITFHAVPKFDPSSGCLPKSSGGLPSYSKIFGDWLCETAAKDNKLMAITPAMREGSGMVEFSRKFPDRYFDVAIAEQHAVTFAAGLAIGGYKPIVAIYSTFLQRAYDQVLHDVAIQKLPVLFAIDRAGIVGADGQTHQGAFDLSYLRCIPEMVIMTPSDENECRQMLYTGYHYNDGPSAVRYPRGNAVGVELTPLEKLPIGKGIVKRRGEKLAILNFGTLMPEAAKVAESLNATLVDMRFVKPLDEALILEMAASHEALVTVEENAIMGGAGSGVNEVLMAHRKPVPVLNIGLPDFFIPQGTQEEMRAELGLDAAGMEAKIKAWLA

In the case of `CC(=O)P(=O)(O)OCCc1cn([C@H](CO)Cc2ccccc2)nn1` [Compound 19], the Ki on EcDXPS is 13400 ± 1500 nM. Still for that read-out and setting: the result for `CC(=O)P(=O)(O)OCCc1cn([C@@H](C(=O)O)C(c2ccccc2)c2ccccc2)nn1` [Compound 6] reads 570 ± 120 nM. For the molecule `CC(=O)P(=O)(O)OCCc1cn([C@H](Cc2ccccc2)C(=O)O)nn1` [Compound 1, D-PheTrAP], the “estimated selectivity ratio for DXPS over porcine PDH” value in assay [1] was > 15,000 fold. The Ki on EcDXPS was 260 ± 30 nM. With `CC(=O)P(=O)(O)OCCc1cn([C@H](CC2CCCCC2)C(=O)O)nn1` [Compound 14], on EcDXPS, the Ki is 260 ± 60 nM. On to `CC(=O)P(=O)(O)OCCc1cn([C@H](COCc2ccccc2)C(=O)O)nn1` [Compound 4], for which, at EcDXPS, the Ki came out at 1420 ± 50 nM and the “fold change in Ki^app relative to 1” value is around 5 fold. Taken in the same sequence, the figures for `CC(=O)P(=O)(O)OCCc1cn([C@@H](C(=O)O)c2ccccc2)nn1` [Compound 5] were 2100 ± 200 nM and 8 fold.

For `CC(=O)P(=O)(O)OCCc1cn([C@H](Cc2ccc(-c3ccccc3)cc2)C(=O)O)nn1` [Compound 2], at EcDXPS, the Ki was found to be 8000 ± 1000 nM and the “fold change in Ki^app relative to 1” value is reported as 30 fold. On to `CC(=O)P(=O)(O)OCCc1cn([C@@H](CO)Cc2ccccc2)nn1` [Compound 18], for which the Ki on EcDXPS turned out to be 13300 ± 1400 nM. Consider `COC(=O)C(Cc1ccccc1)(Cc1ccccc1)n1cc(CCOP(=O)(O)C(C)=O)nn1` [Compound 11], for which the Ki at EcDXPS came to 2900 ± 500 nM. Moreover, on EcDXPS (relative to compound 8), the “fold increase in Ki^app relative to 8” value stood at 1000 fold. With `CC(=O)P(=O)(O)OCCc1cn([C@H](Cc2cccc3ccccc23)C(=O)O)nn1` [Compound 7], at EcDXPS, the Ki was 600 ± 60 nM.

As for `CC(=O)P(=O)(O)OCCc1cn(C2(C(=O)O)Cc3ccccc3C2)nn1` [Compound 12], on EcDXPS, the Ki turned out to be 290 ± 40 nM. Turning to `CC(=O)P(=O)(O)OCCc1cn([C@@H](C(=O)O)C23CC4CC(CC(C4)C2)C3)nn1` [Compound 16], the Ki on EcDXPS turned out to be 360 ± 10 nM. Consider `CC(=O)P(=O)(O)OCCc1cn([C@H](Cc2ccccc2)C(c2ccccc2)c2ccccc2)nn1` [Compound 21], for which the “inhibition of EcDXPS” value at EcDXPS (up to a concentration of 50 μM) is listed as “Minimal inhibition”.

Turning to `CC(=O)P(=O)(O)OCCc1cn([C@H](C(=O)O)C23CC4CC(CC(C4)C2)C3)nn1` [Compound 17], the Ki at EcDXPS stood at 390 ± 60 nM. Turning to `CC(=O)P(=O)(O)OCCc1cn([C@H](Cc2ccc(OCc3ccccc3)cc2)C(=O)O)nn1` [Compound 3], on EcDXPS, the Ki was determined as 4900 ± 600 nM and the “fold change in Ki^app relative to 1” value came out at 19 fold.

With `CC(=O)P(=O)(O)OCCc1cn(C2(C(=O)O)CCCC2)nn1` [Compound 13], the Ki on EcDXPS was found to be 530 ± 110 nM. Take `CC(=O)P(=O)(O)OCCc1cn(C(c2ccccc2)c2ccccc2)nn1.CCN(CC)CC` [Compound 20]: on EcDXPS, the Ki came to 5420 ± 40 nM and the “fold change in Ki^app relative to 1” value is on record as around 21 fold.

`CC(=O)P(=O)(O)OCCc1cn([C@@H](C(=O)O)C2CCCCC2)nn1` [Compound 15]: on EcDXPS, the Ki worked out at 1600 ± 200 nM and the “fold change in Ki^app relative to 1” value was found to be 6 fold. In the case of `CC(=O)P(=O)(O)OCCc1cn([C@@H](Cc2ccccc2)C(c2ccccc2)c2ccccc2)nn1` [Compound 22], the “α (mixed inhibition model)” value at EcDXPS (mixed inhibition model) is given as above 1. Also, on EcDXPS (model discrimination by Akaike's information criterion, varied pyruvate), the inhibition mode result was “mixed inhibition mode”. In addition, on EcDXPS, the Ki worked out at 96000 ± 10000 nM and the “fold change in Ki^app relative to 1” value was 370 fold.

The values above are taken from article PMC11019550, “Potent Inhibition of E. coli DXP Synthase by a gem-Diaryl Bisubstrate Analog” (ACS Infectious Diseases, 2024).
